Values of other authors as cited in US7250518B2, “Nicotinamide acids, amides, and their mimetics active as inhibitors of PDE4 isozymes” (Pfizer Inc., priority 2001, dated 2007).
Read-outs that look alike come from different tables or passages of the source.

Assays:
[1] = in vivo
[2] = tested on: high-affinity rolipram binding site (Sr)
[3] = tested on: late reactions to inhaled allergen; conditions: 9.5 days oral, 15 and 30 mg, bronchial asthma patients
[4] = 54 subjects, doses up to 400 mg
[5] = rat
[6] = rat; remark: listed apart in the source
PDE4 in U937 cells = conditions: read-out: IC50 as PDE4 inhibitor in U937 cells
[7] = tested on: antigen-induced eosinophilia; conditions: rat
rhinorrhea = conditions: antigen-challenged pig
[8] = tested on: bronchoconstriction, BAL eosinophilia, AHR; conditions: in vivo
guinea-pig lung PDE4 = conditions: read-out: IC50 against guinea-pig lung PDE4
[9] = tested on: TNF release and lymphocyte proliferation; conditions: oral dose of 300 mg
[10] = tested on: antigen-induced bronchoconstriction; conditions: guinea-pig
TNF production = conditions: read-out: IC50 as an inhibitor of TNF production
canine tracheal PDE4 = conditions: at 100 nM
[11] = tested on: PDE4 derived from tumor cells; conditions: read-out: IC50 against a PDE4 derived from tumor cells
[12] = tested on: histamine- and antigen-induced bronchoconstriction, eosinophilia, AHR; conditions: guinea-pig
[13] = tested on: dextran sulfate induced colitis; conditions: rat
rheumatoid arthritis = conditions: 35 patients, t.i.d., placebo-controlled
[14] = tested on: antigen-induced lung eosinophilia, BAL eosinophilia, AHR; conditions: guinea-pig
[15] = tested on: antigen-induced bronchospasm; conditions: rat
[16] = tested on: keratomed psoriatic epidermis; conditions: over controls
epidermal basal cells = conditions: primary culture
psoriatic lesions = conditions: two double-blind studies versus vehicle
[17] = tested on: in vitro guinea-pig models of asthma; conditions: read-out: IC50 in standard in vitro guinea-pig models of asthma
[18] = COPD patients, 15 mg b.i.d., week 6
[19] = oral 5, 10, and 15 mg b.id., week 2
[20] = tested on: seratonin-induced bronchoconstriction; conditions: dog
inflammatory parameters = conditions: topical, bilaterally over eight days, twenty patients
[21] = tested on: lipopolysaccharide-induced bowel erythrocyte extravasation; conditions: rats, i.p. 3× pretreatment
[22] = tested on: lipopolysaccharide-induced mesenteric blood flow fall; conditions: inhibiting lipopolysaccharide-induced mesenteric blood flow fall
[23] = tested on: human peripheral blood mononuclear cells (HPBM); conditions: normal patients and subjects with atopic dermatitis
[24] = tested on: bone mineral density of femurs; conditions: serial oral administrations
TNF-α and IL-6 levels = conditions: 1 mg/kg/hr over 24 hours
[25] = tested on: experimental allergic encephalomyelitis; conditions: marmoset
[26] = tested on: PHA stimulated normal PBMC; conditions: read-out: IC50, inhibition of PHA stimulated normal PBMC proliferation
[27] = tested on: croton oil-induced ear inflammation; conditions: mouse
[28] = tested on: PHA stimulated atopic dermatitis PBMC; conditions: read-out: IC50, inhibition of PHA stimulated atopic dermatitis PBMC proliferation
[29] = tested on: chronic relapsing experimental allergic encephalomyelitis; conditions: SJL mice
[30] = tested on: collagen II induced arthritis
[31] = tested on: T-cell mediated hepatic failure

O=C(Nc1c(Cl)cncc1Cl)C(=O)c1cn(Cc2ccc(F)cc2)c2ccc(O)cc12 [AWD-12,281]
Activity in a rat model of allergic rhinitis (allergic rhinitis): active

Nc1nc2c([nH]1)c(=O)n(CC1CC1)c(=O)n2CC1CC1 [BRL-61,063]
Emesis, nausea and vomiting [1]: adverse events of nausea and vomiting

COc1ccc([C@H](Cc2ccncc2)c2ccccc2)cc1OC1CCCC1 [CDP840]
Affinity at the Sr [2]: comparatively low affinity | Effect on late reactions to inhaled allergen [3]: suppression of late reactions to inhaled allergen | Emesis, nausea and vomiting [1]: without any adverse events of nausea or headache

Cc1cc2c3c(c1)C(c1ccccc1)=N[C@@H](NC(=O)c1ccncc1)C(=O)N3CC2 [CI-1018]
Adverse events [4]: no adverse events | Oral bioavailability [5]: 57% | ED50, oral potency [6]: 5 mg/kg | IC50 (PDE4 in U937 cells): 1100 nM | Inhibition of antigen-induced eosinophilia [7]: active

COc1ccc(C2CNC(=O)NC2)cc1O[C@H]1C[C@@H]2CC[C@H]1C2 [CP-80,633]
Affinity at the Sr [2]: high affinity | Emesis, nausea and vomiting [1]: elicit emesis

CCCn1c(=O)c2c(C)nc(CC)n2c2nc(OC)ccc21 [Example D-22888]
Effect on rhinorrhea (rhinorrhea): inhibit rhinorrhea

CCOc1cc2cc(CO)c(CO)c(-c3ccn(CCOC)c(=O)c3)c2cc1OCC [Example T-440]
Inhibition of early and late phase bronchoconstriction, BAL eosinophilia, ozone-induced AHR and airway epithelial injury [8]: activity

CCOc1cc2cc(CO)c(CO)c(-c3ccnc(-n4nc(-c5cccnc5)c5ccccc5c4=O)c3)c2cc1OCC [Example T-2585]
IC50 (guinea-pig lung PDE4): 0.13 nM

CCNc1ncn(Cc2ccc(OC)c(OC3CCCC3)c2)c2nc(C(C)C)nc1-2 [Example V-11294A]
Effect on LPS-stimulated ex vivo TNF release and PHA induced lymphocyte proliferation [9]: effective in reducing TNF levels and lymphocyte proliferation | Inhibition of antigen-induced bronchoconstriction [10]: active

COc1ccc(C(CC(N)=O)N2C(=O)c3ccccc3C2=O)cc1OC1CCCC1 (stereo not shown) [Formula (0.0.32)]
IC50 (PDE4; read-out: IC50 as an inhibitor of PDE4): 0.042 nM | IC50 (TNF production): 130 nM

COc1ccc(-c2nc3cnccc3o2)c2c1OC1(CCCC1)C2 [Formula (0.0.48)]
IC50 (PDE4; read-out: IC50 as PDE4 inhibitor): 2.5 nM

COc1ccc(C(=O)Cc2c(Cl)c[n+]([O-])cc2Cl)c2c1OCCCCO2 [Formula (0.0.49)]
Inhibition of canine tracheal PDE4 (canine tracheal PDE4): almost complete inhibition

Clc1nc2c(N3CCCC3)nc(N3CCNCC3)nc2nc1NCc1ccccc1 [Formula (0.0.55)]
Concentrations inhibiting the growth of tumor cells (tumor cells): micromolar concentrations | IC50 [11]: 16 nM

O=c1c2[nH]cnc2c2cccnc2n1-c1ccccc1 [KF17625]
Inhibition of histamine- and antigen-induced bronchoconstriction, PAF- and antigen-induced eosinophilia, AHR, bronchospasm [12]: activity

O=c1c2c(ncn2Cc2cccnc2)c2cccnc2n1-c1ccccc1 [KF19514]
Inhibition of histamine- and antigen-induced bronchoconstriction, PAF- and antigen-induced eosinophilia, AHR, bronchospasm [12]: activity

CCCn1c(=O)c2[nH]cnc2n(-c2ccc(Cl)cc2)c1=O [LAS31025]
Effect in dextran sulfate induced colitis [13]: beneficial effects comparable to prednisolone

CCCn1c(=O)c2[nH]cnc2n(-c2ccc(Cl)cc2)c1=O [LAS-31025]
Inhibition of antigen-induced bronchoconstriction [10]: active

COc1ccc(C(=O)Nc2c(Cl)cncc2Cl)cc1OC1CCCC1 [RP73401]
Clinical effect in rheumatoid arthritis (rheumatoid arthritis): positive trend towards clinical improvement

COc1ccc(C(=O)Nc2c(Cl)cncc2Cl)cc1OC1CCCC1 [RP-73,401]
Affinity at the Sr [2]: high affinity | Emesis, nausea and vomiting [1]: elicit emesis | Inhibition of antigen-induced lung and BAL eosinophilia, EPO, PAF- and ozone-induced AHR, IL-5 induced pleural eosinophila [14]: active

COc1ccc(CNc2c(C)noc2C)cc1OC1CCCC1 [RPR-132294]
Inhibition of antigen-induced bronchospasm [15]: activity

O=c1c2cccnc2n(-c2cccc([N+](=O)[O-])c2)c(=O)n1Cc1ccncc1 [RS-23,544]
Affinity at the Sr [2]: high affinity | Emesis, nausea and vomiting [1]: elicit emesis

COc1ccc(CC2CNC(=O)N2)cc1OC1CCCC1 (stereo not shown) [Ro 20-1724]
Increase in cAMP concentration [16]: 1395% | Increase in cAMP concentrations (epidermal basal cells): three-fold | Effect on psoriatic lesions (psoriatic lesions): improve psoriatic lesions without adverse systemic or cutaneous effects

O=C(Nc1c(Cl)cncc1Cl)c1ccc(OC(F)F)c(OCC2CC2)c1 [Roflumilast]
IC50 [17]: 3.5 nM

COc1ccc([C@]2(C#N)CC[C@@H](C(=O)O)CC2)cc1OC1CCCC1 [SB-207,499]
Affinity at the Sr [2]: comparatively low affinity | Improvement in trough FEV1 [18]: 11% | Maximum mean difference in trough FEV1 compared with placebo [18]: 160 mL | Change in trough FEV1 from placebo [19]: significant increases

COc1ccc(/C(C)=N/OC(N)=O)cc1OC1CCCC1 [WAY-PDA-641]
Inhibition of seratonin-induced bronchoconstriction [20]: active

COc1ccc(C2CNC(=O)NC2)cc1O[C@H]1C[C@@H]2CC[C@H]1C2 [atizoram]
Effect on inflammatory parameters (inflammatory parameters): effectively inhibit all of the inflammatory parameters tested

CCCCn1c(=O)c2c(ncn2CC(C)=O)n(CCCC)c1=O [debufylline]
Effect on lipopolysaccharide-induced bowel erythrocyte extravasation [21]: reduces

CCCCn1c(=O)c2c(ncn2CC(C)=O)n(CCCC)c1=O [denbufylline]
Potency relative to pentoxifylline [22]: 100 fold | Inhibition of the proliferation of HPBM [23]: concentration-related inhibition | Effect on bone mineral density of femurs [24]: inhibit the decrease in the bone mineral density

CC(=O)CCCCn1c(=O)c2c(ncn2C)n(C)c1=O [pentoxifylline]
IL-6 levels (TNF-α and IL-6 levels): significantly increased | TNF-α levels (TNF-α and IL-6 levels): significantly lowered | Effect on lipopolysaccharide-induced bowel erythrocyte extravasation [21]: reduces

COc1ccc(C2CNC(=O)C2)cc1OC1CCCC1 (stereo not shown) [rolipram]
Effect on clinical signs [25]: suppress the appearance of clinical signs | IC50 [26]: 2600 nM | Topical dose inhibiting croton oil-induced ear inflammation [27]: ≥ 0.03 mg per ear | IC50 [28]: 280 nM | Effect on clinical signs and pathological changes [29]: ameliorates clinical signs and pathological changes | Effect on appearance of arthritic symptoms ([30]; 2 mg/kg twice daily for five days before onset of arthritis): significantly delayed the appearance of arthritic symptoms | Effect on development of the disease ([30]; 3 mg/kg twice daily when arthritis was apparent): progression of severity was halted | Effect in dextran sulfate induced colitis [13]: beneficial effects comparable to prednisolone | IL-10 levels ([31]; 0.1 to 10 mg/kg i.p.): significantly elevates | Plasma activities of liver enzymes ALT, AST, and SDH ([31]; 0.1 to 10 mg/kg i.p.): dose-dependently inhibited | Plasma TNF-α and INF-γ concentrations ([31]; 0.1 to 10 mg/kg i.p. 30 minutes before concanavalin A or staphylococcal enterotoxin B): significantly reduce | Inhibition of the proliferation of HPBM [23]: concentration-related inhibition | Effect on lipopolysaccharide-induced bowel erythrocyte extravasation [21]: reduces
